Test results as given in article PMC11551755, “Structure-based discovery of first inhibitors targeting the helicase activity of human PIF1” (Nucleic Acids Research, 2024).

What follows are compounds tested against T1, hPIF1HD V258A (Homo sapiens, UniProt Q9H611, V258A) (assay: ssDNA d(T)55 binding assay (EMSA), hPIF1HD V258A variant). Settings: 0.25 nM d(T)55, 2 nM protein, 5 mM AMP-PNP, 0.0078–2 mM compound; read-out: IC50 for inhibition of ssDNA binding, V258A.
T1 construct: The human PIF1 helicase domain and mutants (hPIF1HD, residues 206–620); hexa-histidine tag (N, cleaved yes); made in house; host or cells: ArcticExpress BL21(DE3) E. coli (Agilent Technologies)
T1 sequence (Q9H611 206-620 V258A): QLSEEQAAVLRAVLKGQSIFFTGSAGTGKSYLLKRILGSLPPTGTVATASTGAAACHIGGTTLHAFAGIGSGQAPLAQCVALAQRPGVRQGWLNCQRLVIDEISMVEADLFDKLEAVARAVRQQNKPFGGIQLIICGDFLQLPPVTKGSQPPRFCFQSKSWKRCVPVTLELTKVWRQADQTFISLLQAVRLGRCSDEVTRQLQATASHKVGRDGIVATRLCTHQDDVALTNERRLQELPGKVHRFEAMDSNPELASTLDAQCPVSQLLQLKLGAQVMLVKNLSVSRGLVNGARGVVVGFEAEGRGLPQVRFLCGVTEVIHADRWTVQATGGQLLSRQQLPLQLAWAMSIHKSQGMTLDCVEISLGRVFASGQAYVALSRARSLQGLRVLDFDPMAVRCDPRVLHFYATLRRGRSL
Protocol: DNA binding of hPIF1HD was assayed using a ^32P-5′ end-labelled oligo d(T)55 substrate (0.25 nM), under the same buffer conditions described for helicase assays, but with AMP-PNP instead of ATP. Reaction products were resolved on 5% poly-acrylamide gels (29:1 acrylamide:bis-acrylamide) using 0.25× TBE running buffer ([19],[28]). Gels were processed and reaction products quantified by phosphorimaging and IC50 values determined as described above.
In hPIF1HD/AMP-PNP/1 there are no direct hydrogen bonds between amino acid side chains and 1, however, Val 258 from domain 1A is making van der Waals interaction (<3.8 Å) with the amide group at one end of the molecule (Figure 1). From the structural data, we reasoned that substitution of the Val 258 with alanine (V258A) would increase the size of the binding pocket and its accessibility to ligand, while substitution with leucine (V258L) would decrease pocket size and possibly instigate a clash with Lys 556, disrupting interactions with compound 1 or derivatives. Accordingly, we purified hPIF1HD V258A and V258L variant forms and analysed ssDNA d(T)55 binding in the presence of SMIs, using EMSA as above.
Supplementary Figure 12. hPIF1HD variants V258A and V258L ssDNA binding IC50 determination by EMSA with selected SMIs. All binding reactions were assembled under helicase reaction conditions but with 0.25 nM radiolabelled oligo d(T)55, and 5 mM AMP-PNP. (A) DNA binding activity of wild type and mutant proteins was assessed by EMSA without inhibitors. […] 1D: Wild type (WT), V258A and V258L, not determined. 2: WT, 224 ± […]; V258A, 103 ± 31 µM; V258L, 304 ± 88 µM. 5: WT, 198 ± 54 µM; V258A, 79.2 ± 27 µM; V258L, 414 ± 45 µM. 6: WT, 722 ± 194 µM; V258A, 295 ± 116 µM; V258L, 1010 ± 282 µM. 10: WT, 224 ±59 µM; V258A, 152 ± 42 µM; V258L, 378 ± 99 µM. 11: WT, 284 ± 110 µM; V258A, 151 ± 51 µM; V258L, 551 ± 215 µM.
Work on `CC(=O)Nc1ccc(-c2csc(N)n2)cc1-c1ccc(C)cc1` [Compound 10] yielded an IC50 of 152 ± 42 µM.
In the case of `CC(=O)c1ccc(-c2csc(N)n2)cc1` [Compound 2], the IC50 is reported as 103 ± 31 µM.
`CC(=O)Nc1ccc(-c2csc(N)n2)cc1C1=CCNCC1` [Compound 11] showed an IC50 of 151 ± 51 µM.
For `N#Cc1ccc(-c2csc(N)n2)cc1` [Compound 5], the IC50 was 79.2 ± 27 µM.
With `Nc1nc(-c2ccc(C(=O)c3ccccc3)cc2)cs1` [Compound 6] the IC50 was 295 ± 116 µM.
